From US20260258025A1, “INHIBITORS OF TDP-43 AND TAU AGGREGATION” (Aquinnah Pharmaceuticals, inc., priority 2023, published 2026)

What was measured:
TDP-43 aggregation = TDP-43 aggregation assay in SY5Y TDP-43WT cells (high content imaging); type: cell-based; details: Homo sapiens, tetracycline induction 24 hrs, 1 hour compound pre-treatment, sodium arsenite 23 hrs, 8-point dose curve, percentage of cells with TDP-43 aggregates, read-out: IC50, Inhibition of TDP-43 Aggregation
Method in brief: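 Tetracycline-inducible eGFP-tagged wild-type human TDP-43 in SH-SY5Y cells, induced 24 h ([…]), compound pre-treated 1 h, then sodium arsenite […] for 23 h. Fixed cells imaged; percentage of DAPI-counted cells with aggregates gives IC50 from 8-point curves.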

tau stress granules = assay: SY5Y-tT1 tau arsenite assay (tau stress granules per cell); type: cell-based; details: SY5Y-tT1 cells, 2 hours compound, 90 minutes arsenite, 50% reduction of granules per cell, read-out: IC50, Inhibitor Activity of Tau Stress Granules
Method in brief: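 SY5Y-tT1 cells were tetracycline-induced for 48 h, pretreated 2 h with serially diluted compounds (PERK inhibitor GSK2606414 as control), then exposed to arsenite for 90 min at 37° C. After fixation and Hoechst staining, tau stress granules per cell were imaged; IC50 is the concentration halving granules per cell.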

Cc1cc(-c2ccc(C3CCN(C(C)C)CC3)cc2)sc1C(=O)N1CC[C@H](N)C1 [Compound 183, (S)-(3-aminopyrrolidin-1-yl)(5-(4-(1-isopropylpiperidin-4-yl)phenyl)-3-methylthiophen-2-yl)methanone]
IC50 (TDP-43 aggregation): < 0.5 µM | IC50 (tau stress granules): < 0.5 µM
